The results in this text go back to patent US20200080076A1, “Expressed Barcode Libraries and Uses Thereof” (The Broad Institute, Inc., priority 2018, published 2020).

One assay deals with OVCAR3 H2B-GFP cells. Description: In vitro platinum-sensitive relapse model, live cell number by time-lapse imaging. It counts as cell-based. The conditions noted are these: six days of treatment, FIG. 1C carboplatin 6.25 μM, FIG. 1D cisplatin 50 μM. The text has this:
FIGS. 1A-1E show the in vitro modeling of non-inherited drug resistance. […] FIGS. 1B-1E show relapse dynamics. Length of drug treatments are indicated as red shaded areas within the graphs. […] While much effort has been focused on experimental models to study the emergence of platinum-resistance (Cunnea & Stronach, Front Oncol 4:81 (2014)), little attention has been given to the development of robust methods to model platinum-sensitive relapse. As the clinical classification of relapse is based both on the effectiveness of the treatment and the time to recurrence, the present study aimed to establish a system that can capture both these aspects. Analogous to the CA125 levels that are used to monitor disease progression in patients, direct measurement of cell number was used to monitor response in vitro. To this end, an OVCAR3 H2B-GFP cell line was generated. OVCAR3 is a commonly used HGSOC model and the H2B-GFP allows the easy quantification of the number of live cells during the course of drug treatment. […] This response was quantified based on time-lapse images and a striking similarity was found between the pattern of platinum-sensitive relapse observed in patients (FIG. 1B), as measured by CA125 levels, and the pattern observed in vitro in this study (FIG. 1C-D). […]

The test system of assay [1] is Watermelon-transduced PC-9 cells. The assay can be described thus: Sensitivity of Watermelon-transduced PC-9 cells to EGFR-TKIs, number of mCherry objects. It counts as cell-based. To be noted: varying concentrations (FIGS. 6B and 6C). An excerpt: FIGS. 6A-6D show the modeling of non-inherited drug resistance of PC-9 cells to EGFR tyrosine kinase inhibitors (EGFR-TKI).

On to `N.N.O=C([O-])C1(C(=O)[O-])CCC1.[Pt+2]` [carboplatin], for which the “response of cells to platinum treatment (number of live cells)” value in the assay with OVCAR3 H2B-GFP cells is on record as “the majority of cells died”. Take `N.N.[Cl][Pt][Cl]` [cisplatin]: the “response of cells to platinum treatment (number of live cells)” value with OVCAR3 H2B-GFP cells is “the majority of cells died”. Regarding `C=CC(=O)Nc1cc(Nc2nccc(-c3cn(C)c4ccccc34)n2)c(OC)cc1N(C)CCN(C)C` [osimertinib], the “sensitivity of cells to EGFR-TKI (number of mCherry objects)” value in assay [1] is reported as “sensitive”.
